The values that follow come from a melting point compilation (Tetko et al.).

Consider `COc1cc(C=C(C(=O)O)C(=Cc2cc(OC)c(OC)c(OC)c2)C(=O)O)cc(OC)c1OC`, for which the melting point (as a rule, the temperature, or range, at which the solid turns liquid) came to 229 °C. `Nc1c(F)c(F)c(C(=O)O)c(F)c1F` showed a melting point of 183 °C. For `OCCc1c(Cl)cccc1Cl`, the melting point is 59 to 65 °C. The compound `CC(C)(C)NCC(O)c1ccccc1Cl` (stereo unspecified) yielded a melting point of 89 °C. The result for `c1ccc(N=Nc2ccc(/N=N/c3ccc(N=Nc4ccccc4)cc3)cc2)cc1` reads 233 °C. The compound `O=S(=O)(Cl)Cc1ccccc1` had a melting point of 92 °C.

As for `Cc1ccc(-n2c(C=Cc3ccc([N+](=O)[O-])cc3)nc3cc([N+](=O)[O-])ccc32)cc1`, the melting point is 267 °C. The compound `OCC1OC(c2ccccc2)OC1CO` (single isomer, unassigned; (+)) returned a melting point of 69 to 74 °C. `OC1(c2ccc(Cl)c(C(F)(F)F)c2)CCNCC1` came in with a melting point of 135 to 140 °C.

The compound `O=S(=O)(c1ccc(O)cc1)c1ccc(O)cc1` showed a melting point of 248 °C.

On to `Cc1nc(-c2ccc(N)cc2)cs1`, for which the melting point is 140 to 141 °C. As to `CC(C)(C)OC(=O)Nc1cccs1`, the melting point fell in the range of 151 to 152 °C.

On to `CC(C)n1nnc2cc(C(=O)O)ccc21`, for which the melting point lay in the range of 222 to 227 °C. Consider `Nc1cccc(-c2ccccc2)c1`, for which the melting point turned out to be 33 °C. The result for `O=S(=O)(Cl)c1cc(Cl)cc(Cl)c1` reads 53 to 57 °C. `COc1cc2c(cc1OC)C1(O)C(=O)c3ccc4c(c3OC1CO2)C=CC(C)(C)O4` (stereo unspecified): the melting point was found to be 198 °C. Turning to `Cn1nc(-c2cccs2)cc1CN`, the melting point lay in the range of 77 to 78 °C.

Take `CNC1=CC(=O)C2(C)CCC1C2(C)C` (stereo unspecified): the melting point worked out at 195 °C. In the case of `CN(C)c1ccc(N=Nc2ccccc2)cc1`, the melting point is 117 °C. As to `C=CCN(CC=C)C(=O)CCl`, the melting point was determined as 25 °C. Regarding `C[C@@H]1C(=O)[C@H](C)[C@@H](c2ccc(Cl)cc2)O[C@H]1c1ccc(Cl)cc1`, the melting point turned out to be 190 °C. Then `Brc1c(Br)c(Br)c(-c2c(Br)c(Br)c(Br)c(Br)c2Br)c(Br)c1Br`, with 375 °C; and `CCOC(=O)C(Br)CCC(Br)C(=O)OCC` (stereo unspecified), with 66 to 68 °C. The result for `BrCCCCCBr` reads -34 °C; that for `Oc1c(F)c(F)c(O)c(F)c1F`, 172 to 174 °C. In turn, `O=C(O)C1CCCC1C(=O)O` (stereo unspecified) showed a melting point of 160 °C.

For `O=C(O)c1cccc2c1OCO2`, the melting point was 224 to 225 °C. As for `O=C1c2cccc(O)c2C(=O)c2cccc(O)c21`, the melting point came out at 280 °C. On to `O=C1CSC(c2cccs2)C1` (stereo unspecified), for which the melting point was in the range of 55 to 58 °C. `O=C(Cl)c1cccc(Cl)c1Cl` gave a melting point of 30 °C.

Compound `COC(C)COC(C)CO` (stereo unspecified) returned a melting point of -83 °C. Regarding `C=CCOCC=C`, the melting point is -6 °C. `Cc1ccc(C(=O)N(NC(=O)c2ccccc2)C(C)(C)C)cc1` yielded a melting point of 188 °C. Consider `CC(C)C(C)(C)Cl`, for which the melting point was -10 °C. The result for `CCSC(=O)COc1ccc(Cl)cc1C` reads 41.5 °C. Then `Nc1ccc(Br)c(Cl)c1Cl`, with 75 to 77 °C. In turn, `CC(=O)OC1CC2C(C)C(=O)C3(C(O)CC4C(C)(C)CCCC4(CO)C13)C2O` (stereo unspecified) gave a melting point of 120 °C. Then `O=C(O)c1c(F)ccc(F)c1O`, with 152 °C.

`CC=CCC=CCCC(=O)C1OC1C(N)=O` (stereo unspecified) displayed a melting point of 93.5 °C.

Regarding `Cc1ccsc1`, the melting point was -69 °C. The result for `Cn1ccc(C#N)n1` reads 41.5 to 45 °C; that for `Cc1nnc2n1-c1sc(Br)cc1C(c1ccccc1Cl)=NC2`, 213 °C. Turning to `C=C(C)C1Cc2c(cc(O)c3c2OC2COc4cc(OC)c(OC)cc4C2C3=O)O1` (stereo unspecified), the melting point was determined as 195 °C. Take `CC(=O)Oc1cccc(O)c1`: the melting point worked out at 55 °C.

`O=P(N1CC1)(N1CC1)N(N=Cc1ccccc1)c1ccccc1` returned a melting point of 114 °C. `Cc1ccc(S(=O)(=O)CCCl)cc1` yielded a melting point of 77 to 78 °C. The compound `N#CCOc1cccc(Cl)c1` had a melting point of 29 °C.

`N[C@@H](CO)c1ccccc1` registered a melting point of 75 to 79 °C. `CC1CCc2cc3c(cc2N1)CCC(C)N3C(=O)c1ccccc1` (stereo unspecified) had a melting point of 145 °C. Turning to `Cc1cc(C)c2c(=O)n3ccccc3cc2c1`, the melting point was 114 °C. For the compound `CCC1C(=CC(=O)CI)N(C)C(C)(C)N1O` (stereo unspecified), the melting point fell in the range of 126 to 127 °C.

As to `c1ccc(C2Nn3c(nnc3-c3cccnc3)S2)cc1` (stereo unspecified), the melting point was determined as 220 °C. Compound `ON=Cc1cccnc1` yielded a melting point of 150 °C.

With `O=C1NC(=O)C(=Cc2ccccc2)N1`, the melting point is 222 °C.

Regarding `COc1ccc(OCC2CO2)cc1` (stereo unspecified), the melting point turned out to be 47 °C. The compound `CC(C)(C)c1cc([N+](=O)[O-])cc([N+](=O)[O-])c1O` gave a melting point of 126 °C. The result for `O=C(Cl)c1ccccc1[N+](=O)[O-]` reads 17 to 20 °C; that for `CC(CCc1oc2ccc(Br)cc2c1-c1ccc(C)o1)=NO`, 132 °C. As to `COc1ccc(-n2nc(C(=O)c3cccc4ccccc34)sc2=N)cc1`, the melting point was found to be 75 °C. `CCCCCCCCCCCCCCCCCC(=O)OCCCCC` came in with a melting point of 30 °C. Compound `CCc1cccc2c1CCCC2` gave a melting point of -44.5 °C.

Regarding `O=C1c2ccccc2C(=O)N1c1ccccc1`, the melting point was 210 °C.

Regarding `COC(=O)c1ccc(/C=C/c2ccc(C(=O)OC)cc2)cc1`, the melting point amounted to 235 °C. Compound `CCCCCCCc1ccccc1` came in with a melting point of -48 °C.

`N=C(N)NS(=O)(=O)c1cc(C(F)(F)F)cc(C(F)(F)F)c1` displayed a melting point of 194 to 197 °C. For the compound `O=C1c2ccccc2C(=O)N1Br`, the melting point worked out at 206 °C. Take `O=S1(=O)CC=C(Cl)C1`: the melting point lay in the range of 90 to 92 °C. `O=C(O)C(F)(F)C(F)(F)C(F)(F)C(F)(F)C(F)(F)C(F)(F)C(F)(F)C(F)(F)F` had a melting point of 65 °C. Then `CCOC(=O)C(C)=O`, with -50 °C; and `O=C(N[C@@H](Cc1cccc(F)c1)C(=O)O)OCC1c2ccccc2-c2ccccc21`, with 156 °C. `Oc1ccc(-n2ccnc2)cc1`: the melting point lay in the range of 204 to 206 °C. Then `OCc1csc2ccc(Cl)cc12`, with 93 to 94 °C; and `CCOC(=O)CC(/C=C1\C(=O)C2(C)CCC1C2(C)C)(/C=C1\C(=O)C2(C)CCC1C2(C)C)C(=O)OCC` (stereo unspecified), with 105 °C. Then `COc1ccc(-c2onc(C(=O)c3ccco3)c2S(=O)(=O)c2ccccc2)cc1`, with 150 °C; and `CCOC(=O)COc1cccc2ccccc12`, with 56.5 °C; and `CC(=O)c1cc(C(C)(C)C)c(O)c(C(C)(C)C)c1`, with 147 °C.

Consider `Cc1ccccc1CP(=O)(O)O`, for which the melting point lay within 195 to 196 °C.

For the compound `NNC(=O)COc1ccc(OC(F)(F)F)cc1`, the melting point is 130 to 133 °C.

Compound `OCc1nc2ccccc2s1` yielded a melting point of 98 °C.

The compound `Cc1nc2ccccc2c(=O)n1-c1ccccc1Cl` yielded a melting point of 126 °C. As to `O=C=Nc1cccc(C(F)(F)F)c1`, the melting point was -26 °C. The result for `O=c1ccn(C2CC(F)C(CO)O2)c(=O)[nH]1` (stereo unspecified) reads 186 °C; that for `CC1(c2ccccc2)CCOCO1` (stereo unspecified), 37.5 °C. `CCOC(=O)CON=C(c1cc2ccccc2o1)C1CC(C)(c2ccccc2)C1` (stereo unspecified) gave a melting point of 155 to 156 °C. The compound `O=S(=O)(Cl)c1c(Cl)nc2sccn12` returned a melting point of 137 to 139 °C. Then `N#Cc1cc(N)ccc1-n1cccc1`, with 135 to 136 °C; and `CC1(C)Cc2cccc(CO)c2O1`, with 59 to 60 °C. For the compound `CCCCCCCCOC(=O)CCCCC(=O)OCCCCCCCC`, the melting point is -70 °C. In turn, `O=C(Oc1c(F)c(F)c(F)c(F)c1F)c1ccc(-c2ccccc2)nc1` registered a melting point of 113 to 115 °C. The compound `O=C(Cl)c1ccc2nonc2c1` showed a melting point of 55 to 58 °C. For the compound `FC(F)(F)c1ccc(N2CCNCC2)cc1`, the melting point lay in the range of 89 to 92 °C.

Turning to `CC(=O)OCC(=O)[C@@]1(O)CC[C@H]2[C@@H]3CCC4=CC(=O)C=C[C@]4(C)[C@H]3[C@@H](O)C[C@@]21C`, the melting point was 238 °C.

Compound `Cc1ccc(C(Br)C(=O)c2ccc(Cl)cc2)cc1` (stereo unspecified) came in with a melting point of 76 to 78 °C. `O=C(O)C1(C(F)(F)F)CCCCC1` displayed a melting point of 69.5 °C. For the compound `C/C=C/C=C/C(=O)OC`, the melting point worked out at 15 °C. Take `Cc1oc(-c2ccccc2)nc1CC(=O)O`: the melting point was 131 to 133 °C. `C[C@]1(O)C#CCCCCCC#C[C@@](C)(O)CC1` gave a melting point of 100 °C. For the compound `CCCCCCCCCCCCCCCCCCI`, the melting point was found to be 34 °C. Compound `CC(=O)Nc1ccc(-c2ccc(N(Nc3ccccc3)C(C)=O)cc2)cc1` gave a melting point of 233 °C. The result for `CC1(C)C2CCC1(C)C(N=C1C(=O)Nc3ccccc31)C2N=C1C(=O)Nc2ccccc21` (stereo unspecified) reads 234 °C.

`CC(=O)OC1CC[C@H]2[C@@H]3CCC4CC(=O)CC[C@]4(C)[C@H]3CC[C@]12C` (stereo partly specified): the melting point was determined as 146 °C. On to `CC(C)(C)C(O)(CCc1ccc(Cl)cc1)Cn1cncn1` (stereo unspecified), for which the melting point came out at 105 °C.

`CC(Oc1ccc2ccccc2c1)C(=O)Nc1ccccc1` (stereo unspecified) came in with a melting point of 128 °C. Regarding `Clc1cccc2ncccc12`, the melting point is 45 °C.

`CCC(=O)C(=O)O` gave a melting point of 33 °C. Consider `COC(=O)c1csc(S(=O)(=O)Cl)c1OC`, for which the melting point lay in the range of 93 to 96 °C. The result for `Oc1cc(O)cc(-c2cc(O)cc(O)c2)c1` reads 310 °C; that for `Nc1ccc(N)nc1`, 110 °C.

For `CCCC(O)C(=O)O` (stereo unspecified), the melting point was 34 °C. The result for `Fc1cccc(-n2cc[nH]c2=S)c1` reads 162 to 164 °C. `CC(c1ccccc1)N1CC(C(=O)O)CC1=O` (stereo unspecified) yielded a melting point of 210 to 213 °C.
